Numbering of substitutions follows the chain as printed. Where a SMILES comes first, the peptide text is derived from it.
Key:
Assay type in all cases: cell-based, rabbit
R282A-PepT1 [1] = target: T1, R282A-PepT1 (Oryctolagus cuniculus, UniProt P36836, R282A); assay: Apparent charge:peptide stoichiometry (two-electrode voltage clamp current / radiolabelled uptake), R282A-PepT1; conditions: R282A-PepT1, pHout 5.5, resting membrane potential
T1 construct: expressed in transfected cells; host or cells: Xenopus laevis oocytes injected with cRNA
T1 sequence (P36836 1-707 R282A): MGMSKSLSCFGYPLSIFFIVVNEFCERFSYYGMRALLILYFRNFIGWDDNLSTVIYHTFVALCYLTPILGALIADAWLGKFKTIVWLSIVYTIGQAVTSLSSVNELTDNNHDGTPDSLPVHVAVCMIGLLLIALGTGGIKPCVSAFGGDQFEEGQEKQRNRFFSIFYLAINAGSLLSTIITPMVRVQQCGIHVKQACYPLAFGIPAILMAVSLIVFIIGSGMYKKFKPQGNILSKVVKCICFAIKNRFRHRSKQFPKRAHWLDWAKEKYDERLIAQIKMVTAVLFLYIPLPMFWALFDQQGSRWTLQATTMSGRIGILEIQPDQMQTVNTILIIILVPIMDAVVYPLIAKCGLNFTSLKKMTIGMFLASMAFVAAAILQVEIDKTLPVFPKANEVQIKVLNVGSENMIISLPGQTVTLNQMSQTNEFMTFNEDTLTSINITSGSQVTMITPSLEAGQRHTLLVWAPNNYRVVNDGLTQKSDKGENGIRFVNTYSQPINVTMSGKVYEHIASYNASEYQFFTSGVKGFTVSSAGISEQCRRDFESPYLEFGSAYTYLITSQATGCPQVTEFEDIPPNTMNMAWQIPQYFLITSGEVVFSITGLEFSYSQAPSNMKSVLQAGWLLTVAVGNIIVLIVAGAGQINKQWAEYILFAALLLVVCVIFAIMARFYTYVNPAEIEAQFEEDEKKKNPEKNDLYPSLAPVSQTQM
Method: Measurements of membrane potential were made by impaling oocytes with a single glass microelectrode (Intra 767 amplifier, WPI, Stevenage, Hertfordshire, UK) perfused in uptake medium (as above) with or without 0.4 μM D-Phe-L-Gln (synthesised in house), 0.6 mM Gly-L-Gln (Sigma, Poole, UK) or 10 mM 4-aminobenzoic acid (4-AMBA, Sigma). Two-electrode voltage clamp (TEVC) was performed by placing oocytes in a 0.1 ml recording chamber and perfusing with uptake solution (pH 5.5 or 7.4) at a rate of 15 ml/min. Oocytes were impaled by two agarose-cushioned microelectrodes filled with 3 M KCl (0.5–2.0 MΩ) and voltage-clamped at −60 mV using a Geneclamp 500B amplifier and PCLAMP 8.1 software (Axon Instruments, CA, USA). The holding potential was stepped from −60 mV over the range of −150 to +50 mV in 10 mV steps, each pulse lasting 100 ms, and returning to −60 mV in between test voltage pulses. Typically traces were filtered at 1 kHz during recording and digitized at 0.5–5 kHz using the DigiData 1200 interface (Axon Instruments, CA, USA). All experiments were carried out at room temperature.
In order to calculate the apparent charge:substrate stoichiometry, the peptide induced current that was measured by two-electrode voltage clamp at the oocyte resting membrane potential was divided by the radiolabelled dipeptide uptake in oocytes from the same preparation. […]

R282E-PepT1 [2] = target: T2, R282E-PepT1 (Oryctolagus cuniculus, UniProt P36836, R282E); assay: Accumulation of [3H]-D-Phe-L-Gln above the extracellular concentration by oocytes expressing R282E-PepT1; conditions: R282E-PepT1, pHout 7.4, 24 h incubation
T2 construct: expressed in transfected cells; host or cells: Xenopus laevis oocytes injected with cRNA
T2 sequence (P36836 1-707 R282E): T1 sequence (P36836 1-707 R282A) with A282E
Method: (§1) Zero-trans uptake of [^3H]-D-Phe-L-Gln (17.4 Ci/mmole, custom synthesised, Cambridge Research Biochemicals, Stockton-on-Tees, UK) was performed as previously described ([Meredith, 2004]). Briefly, 5 oocytes were incubated in 100 μl of uptake medium (95 mM NaCl, 2 mM KCl, 1 mM CaCl2, 0.42 mM MgCl2, 10 mM Tris/Hepes pH 7.4 or Tris/Mes pH 5.5) with tracer (0.4 μM) [^3H]-D-Phe-L-Gln. After incubation, the oocytes were washed sequentially five times in 1 ml of ice-cold 120 mM NaCl solution, lysed individually with 100 μl 2% (w/v) SDS and liquid scintillation counted. As a control non-injected oocytes were also incubated in uptake medium with [^3H]-D-Phe-L-Gln as above.

R282A-PepT1 [3] = target: T1, R282A-PepT1; assay: Inhibition of [3H]-D-Phe-L-Gln uptake into Xenopus oocytes expressing R282A-PepT1 (competition, Ki); conditions: pHout 5.5, 0.4 μM [3H]-D-Phe-L-Gln
Method: as §1
(§2) The affinity of wild-type and mutant PepT1 were assessed by competition studies with 0.4 μM [^3H]-D-Phe-L-Gln and Gly-L-Gln present in the uptake medium in concentrations from 0 to 2 mM using the protocol above, and the Ki calculated using the method of [Deves and Boyd (1989)].

R282E-PepT1 [4] = target: T2, R282E-PepT1; assay: Inhibition of [3H]-D-Phe-L-Gln uptake into Xenopus oocytes expressing R282E-PepT1 (competition, Ki); conditions: pHout 5.5, 0.4 μM [3H]-D-Phe-L-Gln
Method: as §1, §2

apparent stoichiometry (charge:peptide), normalised to wild-type 1:1 (R282A-PepT1 [1])	accumulation above extracellular concentration (R282E-PepT1 [2])	Ki (R282A-PepT1 [3]) [µM]	Ki (R282E-PepT1 [4]) [µM]	Compound
5	2.3 ± 0.4 -fold	–	–	NC(=O)CC[C@H](NC(=O)[C@H](N)Cc1ccccc1)C(=O)O [D-Phe-L-Gln]
–	–	300 ± 170	350 ± 170	NCC(=O)N[C@@H](CCC(N)=O)C(=O)O [Gly-L-Gln] (H-Gly-Gln-OH)
